Values after ≈ are worked out from the molar mass of the structure shown. “Also recorded” adds a separate entry of the source. Like-named read-outs stand apart in the source and are kept apart here.
Experiments:
[1] = test system: normal human epidermal melanocytes; test: Melanogenesis and melanin content in normal human epidermal melanocytes; type: cell-based
Text: (§1) PPIs had been known to function in the parietal cells to block the production of stomach acid by binding to at least one cysteine residue of the gastric proton pump, ATP4A, to thus effect long-lasting, semi-irreversible inactivation of the ATP4A. In order to bind to the ATPase, the PPI must be in its active form, and the PPI requires an acidic environment to undergo rearrangement to its active form.

[2] = test system: reconstructed human skin model; test: Reconstructed human skin model; type: cell-based
Text: as §1

[3] = test system: tyrosinase, MITF, TRP-2, Pme117 mRNA; test: mRNA levels of melanogenesis related proteins by RT-PCR in B16F10 mouse melanoma cells; type: cell-based
Text: The inventors next examined the effect of omeprazole on tyrosinase, the principal, rate-limiting enzyme in melanin synthesis.

[4] = test system: melanocytes; test: Inhibition of melanogenesis / pigment development in cultured melanocytes; type: cell-based
[5] = pH below 0.8; cited from earlier work
[6] = biological target: T1, ATP7A (Mus musculus, UniProt Q64430); test: Cu+2-stimulated ATP7A trafficking, co-localization assay; type: cell-based; conditions: B16F10 cells
T1 construct: endogenous in cells; host or cells: B16F10 mouse melanoma cells
T1 sequence (Q64430 1-1491): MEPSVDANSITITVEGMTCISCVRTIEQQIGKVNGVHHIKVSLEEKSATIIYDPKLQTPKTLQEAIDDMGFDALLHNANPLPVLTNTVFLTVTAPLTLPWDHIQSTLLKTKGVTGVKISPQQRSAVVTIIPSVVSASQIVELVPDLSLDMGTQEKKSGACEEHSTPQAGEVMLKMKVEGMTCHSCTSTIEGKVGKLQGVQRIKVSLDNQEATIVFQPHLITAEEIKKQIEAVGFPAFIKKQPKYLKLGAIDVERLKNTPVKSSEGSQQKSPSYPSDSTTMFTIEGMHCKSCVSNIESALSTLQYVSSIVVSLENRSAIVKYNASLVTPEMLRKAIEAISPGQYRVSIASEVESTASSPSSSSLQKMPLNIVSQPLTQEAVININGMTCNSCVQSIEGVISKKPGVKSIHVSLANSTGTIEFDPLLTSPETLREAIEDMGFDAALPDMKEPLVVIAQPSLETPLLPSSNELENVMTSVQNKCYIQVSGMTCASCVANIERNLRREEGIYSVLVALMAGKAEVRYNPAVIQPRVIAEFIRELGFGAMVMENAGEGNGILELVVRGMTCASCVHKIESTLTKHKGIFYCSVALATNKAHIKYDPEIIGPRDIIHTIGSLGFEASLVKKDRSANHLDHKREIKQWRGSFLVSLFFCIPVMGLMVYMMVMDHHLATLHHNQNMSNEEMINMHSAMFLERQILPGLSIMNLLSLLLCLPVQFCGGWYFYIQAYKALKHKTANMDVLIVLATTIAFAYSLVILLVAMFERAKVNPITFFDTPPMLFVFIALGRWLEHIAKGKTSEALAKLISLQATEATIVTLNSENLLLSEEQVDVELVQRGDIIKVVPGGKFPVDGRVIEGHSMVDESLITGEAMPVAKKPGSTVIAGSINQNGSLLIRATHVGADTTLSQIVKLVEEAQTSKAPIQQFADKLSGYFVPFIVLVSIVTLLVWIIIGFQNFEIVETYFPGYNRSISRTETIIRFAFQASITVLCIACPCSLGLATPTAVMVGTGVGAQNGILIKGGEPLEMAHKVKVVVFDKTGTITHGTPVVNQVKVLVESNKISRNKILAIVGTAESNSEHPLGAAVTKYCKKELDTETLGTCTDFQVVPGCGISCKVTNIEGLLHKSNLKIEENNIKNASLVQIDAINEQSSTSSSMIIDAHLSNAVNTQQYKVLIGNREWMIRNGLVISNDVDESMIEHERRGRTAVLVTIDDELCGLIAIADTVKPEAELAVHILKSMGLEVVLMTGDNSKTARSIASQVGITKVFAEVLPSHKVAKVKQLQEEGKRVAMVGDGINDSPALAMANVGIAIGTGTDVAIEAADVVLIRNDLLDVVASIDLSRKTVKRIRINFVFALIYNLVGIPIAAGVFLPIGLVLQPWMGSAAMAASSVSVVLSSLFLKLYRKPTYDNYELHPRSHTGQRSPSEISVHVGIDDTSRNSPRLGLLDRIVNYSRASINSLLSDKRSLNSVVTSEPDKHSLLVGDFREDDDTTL
Procedure: Cells were incubated for 16 hours with […] omeprazole or the vehicle (DMSO) and then treated with Cu+2, or not treated, to determine if omeprazole could inhibit Cu+2-stimulated (CuCl2) ATP7A trafficking. […] ATP7A is seen as green following immunofluorescence protocols previously described (Petris et al., 1999), the Golgi stained red, and the nucleus stained blue. […]
This is consistent with the idea that omeprazole is metabolized to generate an inhibitory metabolite (such as hydroxy-omeprazole or perhaps the sulfonated metabolite) which then interacts with newly synthesized tyrosinase. This finding also is consistent with the hypothesis that omeprazole inhibits metallation of newly synthesized tyrosinase via ATP7A, rather than functioning as a direct inhibitor of tyrosinase per se; that is, a 72 hour incubation in omeprazole appears to be required so that preexisting tyrosinase can be turned over, allowing the inhibitory effect of omeprazole to be detected on newly synthesized tyrosinase.

SMILES | cytotoxicity [1] | EC50 ([1]; Melanocyte, read-out: EC50 of melanogenesis inhibition) | concentration at which effective [2] | tyrosinase mRNA levels [3] | concentration that inhibits melanogenesis ([4]; cultured melanocytes) | reorganization (stability) [5] | inhibition of melanogenesis [4] | inhibition of melanogenesis ([4]; listed as SCH-20808) | inhibition of Cu+2-stimulated ATP7A re-localization ([6]; 100 μM for 16 hours, then 10 μM Cu+2 for 3 hours) | ATP7A trafficking without Cu+2 stimulation ([6]; SCH-28080, absence of Cu+2)
COc1ccc2[nH]c([S+]([O-])Cc3ncc(C)c(OC)c3C)nc2c1 (centres unmarked) [omeprazole, 5- or 6-methoxy-2-{[(4-methoxy-3,5-dimethylpyridin-2-yl)methyl]sulfinyl}-1H-benzimidazole] | low cytotoxicity | 15 µg/mL (≈ 43.4 µM) | 50 µg/mL | no effect | 5 to 50 µg/mL | quickly reorganizes into the sulfonamide analog |  |  |  | 
Cc1nc2c(OCc3ccccc3)cccn2c1CC#N [SCH-28080] |  |  |  |  |  |  | also inhibited melanogenesis | strongly inhibited melanogenesis | inhibition; also recorded: very potent inhibitor | no effect on ATP7A trafficking
C[C@@H]1O[C@@H](O[C@H]2C[C@@H](O)[C@]3(CO)[C@H]4[C@H](O)C[C@]5(C)[C@@H](C6=CC(=O)OC6)CC[C@]5(O)[C@@H]4CC[C@]3(O)C2)[C@H](O)[C@H](O)[C@H]1O [ouabain] |  |  |  |  |  |  | does not inhibit melanogenesis |  |  | 
